Columns and labels:
MRGPRX4 = molecular target: T1, MRGPRX4 (Homo sapiens, UniProt Q96LA9); assay: Detection of MRGPRX4 activity (IP1 HTRF, deoxycholic acid stimulation); type: cell-based; settings: HEK-293 cells stably expressing MRGPRX4; compound 45 min, then deoxycholic acid 45 min; IP1 content by HTRF
T1 construct: expressed in transfected cells
Description: HEK-293 cells stably expressing MRGPRX4 were cultured in a DMEM medium containing 10% of FBS and 1% of a double antibody under the culture conditions of 37° C. and 5% CO2. Cells in the exponential growth phase were collected and inoculated into a 384-well plate at an inoculation density of 2×10^4 cells/well, with 10 μL per well. 2 μL/well of a gradient-diluted compound was added and co-incubated with the cells for 45 min. After the incubation was complete, 2 μL/well of deoxycholic acid (MCE, Cat: #HY-N0593) was added to continue the incubation for 45 min. After the incubation was complete, IP-one Gq kit (PE, Cat: #62IPAPEB) was used to detect the content of IP1 according to the instructions. HTRF values were substituted into GraphPad 8.0, and IC50 was calculated by fitting.

[1] = Study of pharmacokinetics in mice in vivo; set-up: species or system C57BL/6 mice; settings: male, C57BL/6, mouse, po (intragastric), 50 mg/kg, plasma
Description: An appropriate amount of the test substance was weighed, and the test substance was prepared into a 2 mg/mL transparent clear solution using 5% DMSO+5% HS-15 (Solutol HS-15)+90% D5W (5% glucose) for intravenous administration. The test substance was prepared into a 5 mg/mL uniform suspension using 5% DMSO+5% HS-15+90% PBS for intragastric administration.
18 healthy male C57BL/6 mice (GemPharmatech Co., Ltd., SPF grade) were taken. The intravenous administration group and the intragastric administration group respectively had 9 animals. At each time point, blood samples were taken from 3 animals via an orbital microsampling method, with a sampling volume of approximately 0.04 mL per animal per time point.
For intravenous administration of the test substance (10 mg/kg), blood samples were taken before administration and at 5 min, 15 min, 0.5 h, 1 h, 2 h, 4 h, 8 h, and 24 h after administration, and for intragastric administration of the test substance (50 mg/kg), blood samples were taken before administration and at 15 min, 0.5 h, 1 h, 2 h, 4 h, 8 h, and 24 h after administration. After anticoagulation with EDTA-K2, the blood samples were centrifuged at 6000 g at 4° C. for 5 min to separate plasma, and all plasma samples were stored at −70° C. for testing. The drug concentration of the test substance in plasma was determined by LC-MS/MS method (with tolbutamide as an internal standard), and the main pharmacokinetic parameters were calculated by Winnolin 8.3 non-compartment model.

T1 sequence (Q96LA9 whole entry): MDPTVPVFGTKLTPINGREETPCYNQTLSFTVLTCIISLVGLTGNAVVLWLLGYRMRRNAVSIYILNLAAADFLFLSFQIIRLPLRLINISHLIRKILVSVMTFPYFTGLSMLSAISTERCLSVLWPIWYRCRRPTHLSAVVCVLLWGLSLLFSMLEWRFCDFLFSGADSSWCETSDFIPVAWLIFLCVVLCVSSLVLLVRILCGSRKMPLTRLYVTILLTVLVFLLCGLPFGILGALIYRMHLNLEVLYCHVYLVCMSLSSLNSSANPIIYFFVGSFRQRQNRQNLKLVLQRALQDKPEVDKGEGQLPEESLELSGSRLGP

In the case of O=C(O)c1cccc(Cn2ccc3cc(Cl)cc(Cl)c32)c1F [Compound 5, 3-((5,7-Dichloro-1H-indol-1-yl)methyl)-2-fluorobenzoic acid], the IC50 (MRGPRX4) is reported as ≤ 200 nM, the AUC [1] is reported as 725 µg·h/mL and the Cmax [1] is reported as 121 µg/mL. It also gave a half-life [1] of 3.49 h.
With O=C(O)c1cccc(Cn2ccc3cc(Cl)c(Cl)cc32)c1F [Compound 6, 3-((5,6-Dichloro-1H-indol-1-yl)methyl)-2-fluorobenzoic acid] the IC50 (MRGPRX4) was ≤ 200 nM.
With O=C(O)c1cccc(Cn2ccc3cc(C(F)(F)F)cc(Br)c32)c1F [Compound 15, 3-((7-Bromo-5-(trifluoromethyl)-1H-indol-1-yl)methyl)-2-fluorobenzoic acid] the IC50 (MRGPRX4) was ≤ 200 nM.
In the case of Cc1cc(C(F)(F)F)cc2ccn(Cc3cccc(C(=O)O)c3F)c12 [Compound 16, 3-((7-Methyl-5-(trifluoromethyl)-1H-indol-1-yl)methyl)-2-fluorobenzoic acid], the IC50 (MRGPRX4) is reported as ≤ 200 nM, the AUC [1] is reported as 612 µg·h/mL and the Cmax [1] is reported as 93 µg/mL. It also gave a half-life [1] of 3.39 h.
O=C(O)c1cccc(Cn2ncc3cc(C(F)(F)F)cc(Br)c32)c1F [Compound 22, 3-((7-Bromo-5-(trifluoromethyl)-1H-indazol-1-yl)methyl)-2-fluorobenzoic acid] gave an IC50 (MRGPRX4) of 200 to 500 nM.
With O=C(O)c1cccc(Cn2ncc3cc(OC(F)(F)F)cc(Br)c32)c1F [Compound 27, 3-((7-Bromo-5-(trifluoromethoxy)-1H-indazol-1-yl)methyl)-2-fluorobenzoic acid] the IC50 (MRGPRX4) was ≤ 200 nM.
For O=C(O)c1cccc(Cn2ncc3cc(Cl)c(Cl)c(Cl)c32)c1F [Compound 28, 2-Fluoro-3-((5,6,7-trichloro-1H-indazol-1-yl)methyl)benzoic acid], the IC50 (MRGPRX4) was ≤ 200 nM, the AUC [1] was 1580 µg·h/mL and the Cmax [1] was 132 µg/mL. For the same molecule, the half-life [1] was 9.81 h.
In the case of O=C(O)c1cccc(Cn2ncc3cc(Cl)cc(Cl)c32)c1F [Compound 30, 3-((5,7-Dichloro-1H-indazol-1-yl)methyl)-2-fluorobenzoic acid], the IC50 (MRGPRX4) is reported as ≤ 200 nM.
For O=C(O)c1cccc(Cn2ncc3cc(Cl)cc(Br)c32)c1F [Compound 36, 3-((7-Bromo-5-chloro-1H-indazol-1-yl)methyl)-2-fluorobenzoic acid], the IC50 (MRGPRX4) was ≤ 200 nM.
With CC(c1cccc(C(=O)O)c1F)n1ncc2cc(Cl)c(Cl)c(Cl)c21 (stereo not drawn) [Compound 39, 2-Fluoro-3-(1-(5,6,7-trichloro-1H-indazol-1-yl)ethyl)benzoic acid] the IC50 (MRGPRX4) was ≤ 200 nM.
Molecule O=C(O)c1cc(Cn2ncc3cc(C(F)(F)F)cc(Br)c32)ccc1F [Compound 41, 5-((7-Bromo-5-(trifluoromethyl)-1H-indazol-1-yl)methyl)-2-fluorobenzoic acid] has an IC50 (MRGPRX4) of 500 to 1000 nM.
For O=C(O)c1cccc(Cn2ncc3c(F)c(Cl)ccc32)c1F [Compound 48, 3-((5-Chloro-4-fluoro-1H-indazol-1-yl)methyl)-2-fluorobenzoic acid], the IC50 (MRGPRX4) was 200 to 500 nM.
For O=C(O)c1cccc(Cn2ncc3cc(Cl)c(F)c(Cl)c32)c1F [Compound 51, 3-((5,7-Dichloro-6-fluoro-1H-indazol-1-yl)methyl)-2-fluorobenzoic acid], the IC50 (MRGPRX4) was ≤ 200 nM.
With Cc1ccc2c(ccn2Cc2cccc(C(=O)O)c2F)c1Cl [Compound 62, 3-((4-Chloro-5-methyl-1H-indol-1-yl)methyl)-2-fluorobenzoic acid] the IC50 (MRGPRX4) was ≤ 200 nM.
In the case of O=C(O)c1cccc(Cn2ccc3c(F)c(Cl)ccc32)c1F [Compound 66, 3-((5-Chloro-4-fluoro-1H-indol-1-yl)methyl)-2-fluorobenzoic acid], the IC50 (MRGPRX4) is reported as ≤ 200 nM.
For N#Cc1ccc2c(ccn2Cc2cccc(C(=O)O)c2F)c1Cl [Compound 74, 3-((4-Chloro-5-cyano-1H-indol-1-yl)methyl)-2-fluorobenzoic acid], the IC50 (MRGPRX4) was ≤ 200 nM.
With O=C(O)c1cccc(Cn2ccc3c(Cl)cc(Cl)cc32)c1F [Compound 79, 3-((4,6-Dichloro-1H-indol-1-yl)methyl)-2-fluorobenzoic acid] the IC50 (MRGPRX4) was ≤ 200 nM.
In the case of O=C(O)c1cccc(Cn2ccc3c(Cl)ccc(Cl)c32)c1F [Compound 80, 3-((4,7-Dichloro-1H-indol-1-yl)methyl)-2-fluorobenzoic acid], the IC50 (MRGPRX4) is reported as 500 to 1000 nM.
In the case of O=C(O)c1cccc(Cn2ccc3c(Cl)c(Cl)ccc32)c1F [Compound 81, 3-((4,5-Dichloro-1H-indol-1-yl)methyl)-2-fluorobenzoic acid], the IC50 (MRGPRX4) is reported as ≤ 200 nM.
Work on O=C(O)c1cccc(Cn2ccc3cc(Cl)cc(Cl)c32)c1Cl [Compound 82, 2-Chloro-3-((5,7-dichloro-1H-indol-1-yl)methyl)benzoic acid] yielded an IC50 (MRGPRX4) of 200 to 500 nM.
For Cc1cc(OC(F)(F)F)cc2ccn(Cc3cccc(C(=O)O)c3F)c12 [Compound 87, 2-Fluoro-3-((7-methyl-5-(trifluoromethoxy)-1H-indol-1-yl)methyl)benzoic acid], the IC50 (MRGPRX4) was ≤ 200 nM.
